Where two headings read alike, the source gives them in different places. Square brackets hold non-standard residues; d marks the D form. * marks the point of attachment. AMC = Cc1cc(=O)oc2cc(N*)ccc12; pGlu = O=C1CC[C@@H](C(=O)O)N1
What was measured:
human recombinant furin [1] = target: T1, human recombinant furin (Homo sapiens, UniProt P09958); type: biochemical
T1 construct: Soluble human recombinant furin was kindly gifted; gift of Dr Anna Kwiatkowska (group of Prof. Robert Day, Université de Sherbrooke)
Protocol: Initially, the activities of the furin inhibitors were screened at three concentrations, i.e., 2.4, 24.0, and 77.0 nM (Figure 4). For selected peptides 3, 5, and 6 and the reference FI, the inhibitory constants (Ki) were calculated (Table 2). Except for the bicyclic peptide 4, all of the inhibitors almost completely abolished the enzyme activity at the highest tested concentration. Peptide 4 was explicitly the weakest inhibitor in the series, also when compared with its monocyclic disulfide-bridged counterpart 1. When the inhibitory activities were analyzed at the lowest tested concentration (2.4 nM), three peptides (3, 5, and 6) reduced the furin activity to less than 50% of its initial noninhibited activity. All of them have an additional basic amino acid at their N-termini (in MD simulations this is depicted as a residue with number “0”). […] Such close inhibitory potency was not observed in the case of an analogous pair, i.e., 2 and 5. […] The two disulfide-bridged peptides, FI and 1, differ only at the P4 position, having Lys and Arg, respectively. […]
The IC50 values (inhibitor concentrations giving 50% inhibition of enzyme activity) were calculated from plots of enzyme activity (% of control sample) versus the inhibitor’s concentration using a four-parameter fit model (GraFit 5.0.12 Erithacus Software Ltd.). The IC50 values were determined from triplicate measurements with at least seven different inhibitor concentrations. The K i values […] were calculated using the Cheng-Prusoff equation, assuming the competitive mode of inhibition, according to the following relationship: IC50 = K i(1+S/Km). All measurements were performed using a Fluostar Omega microplate reader (BMG Labtech, Germany) and 96-well black plates (BRAND, Germany). Recombinant human matriptase-1/ST14 catalytic domain was purchased from R&D Systems, USA. Recombinant human matriptase-2 was obtained from Enzo Life Sciences, Switzerland.
Soluble human recombinant furin was kindly gifted by Dr Anna Kwiatkowska (group of Prof. Robert Day from Université de Sherbrooke).4
The following assay buffers were used: […] (matriptase-1 and matriptase-2), pH 7.5 100 mM HEPES with 1 mM CaCl 2 and 1.8 mg/mL BSA (furin). The substrates used in the assays were as follows: for matriptase-1 and matriptase-2 Boc-Gln-Ala-Arg-AMC (Pepta Nova, Germany) in final concentration of 5 µM, for furin […] (Pepta Nova, Germany) in final concentration of 20 µM. Enzymes concentrations were as follows: 1.25 ng/mL of matriptase-1, 1.51 U/mL for matriptase-2, and 1.1 nM for furin. In the case of matriptase-1 and matripase-2 concentrations were calculated according to information provided by the suppliers.
In short, the tested compounds were added to the appropriate protease in different concentrations and incubated in an assay buffer at 37 °C for 30 min. After this time, a solution of appropriate substrate was added. Reactions were monitored for at least 40 min at 37 °C. The final volume in each well was 200 µL for matriptases and 100 µL for furin. Measurements were carried out using excitation and emission wavelengths of 380 nm and 450 nm. The percentage inhibition of an enzyme was calculated relative to the control sample without an inhibitor. The K m value for furin substrate was determined by incubating the enzyme with its substrate in various concentrations as recommended.5 Plots of the substrate concentration versus the initial reaction velocity were analyzed according to Michaelis-Menten equation using GraFit 5.0.12 Erithacus Software Ltd. A double reciprocal (Lineweaver-Burk) plot was used to determine the Michaelis constant K m value. K m value determined for furin was 1.90 µM.
(§1) Total furin-like enzyme inhibition/activity in PANC-1 cell lysates
Cell line and cell culture. The pancreatic cancer cell line, PANC-1, was obtained from the American Type Culture Collection, ATCC (Manassas, USA). […]

human recombinant furin [2] = target: T1, human recombinant furin; assay: Screening (iterative deconvolution) of peptide sublibraries for furin inhibition; type: biochemical; conditions: Figure 3D1
Protocol: Each of the sublibraries was screened for inhibitory activity against human recombinant furin in the presence of the fluorogenic substrate Pyr-Arg-Thr-Lys-Arg-AMC (where Pyr is pyroglutamic acid and AMC is 7-amino-4-methylcoumarin). Initially, each sublibrary was screened in a 2.2 ng/mL stock solution (Figure 3).
Phe(4-NH-Boc) we experienced difficulties with complete coupling. So we performed reactions by applying microwave heating (50 °C) which improved the process. The same procedures were applied during the whole library synthesis. 10% of mass of each portion was removed for deconvolution.
2. After that, both portions were combined and divided into 10 (j) equal portions, each of which was acylated individually with different protected amino acid. 10% of the mass of each portion was removed for deconvolution.
3. After mixing all j portions of peptidyl–resin, Cys protected derivative was attached.
4. […]
6. Sublibraries with fixed best hits in Xaa (l-j) were subsequently synthesized (using previously put aside 10% of synthesized sublibraries) and their inhibitory activity was determined until the position Xi. […] The inhibitory activity of sublibraries against furin were measured using Pyr-Arg-Thr-Lys-Arg-AMC fluorogenic substrate (Pepta Nova). The experiments were performed on 96-well plates (BRAND, Germany) and microplate reader FluoStar Omega (BMG Labtech, Germany). […]

PANC-1 cell lysate = conditions: human, 37 °C
[3] = system: furin-like enzyme activity in PANC-1 cell lysate; assay: Total furin-like enzyme activity in PANC-1 cell lysate; type: biochemical, human; conditions: peptide 100 µM
Protocol: The presence of furin in PANC-1 cell lysate was indicated by analyzing the release of fluorescent AMC product after incubation of furin substrate (Pyr-Arg-Thr-Lys-Arg-AMC) in the lysate, as described elsewhere.[31],[32] However, we are aware that this assay tends to reflect total furin-like enzyme activity rather than the activity of furin exclusively. This is the case because the liberation of AMC may be catalyzed not only by furin but also by an enzyme with a similar substrate preference, such as other PCs.[31] […] For comparison, the effect of a strong trypsin inhibitor, […] SFTI-1, on furin-like activity was insignificant under the same assay conditions. […] It is likely that SFTI-1 may provide protection for furin inhibitors from degradation by trypsin-like proteases. […]
µL for matriptases and 100 µL for furin. Measurements were carried out using excitation and emission wavelengths of 380 nm and 450 nm. The percentage inhibition of an enzyme was calculated relative to the control sample without an inhibitor. […]
as §1
Cell line and cell culture. The pancreatic cancer cell line, PANC-1, was obtained from the American Type Culture Collection, ATCC (Manassas, USA). PANC-1, a human pancreatic cancer cell line, was isolated from the pancreatic duct (ATCC, CRL-1469) and was cultured in Dulbecco’s Modified Eagle’s Medium (DMEM) by supplementing 10% fetal bovine serum (FBS) and 1% of penicillin/streptomycin (P/S). Cells were cultured at 37 °C with 5% CO2 in a humidified atmosphere. Cells were maintained in a 75 cm2 tissue culture flask. The medium was replaced every two days. The subcultivation ratio was […]
Preparation of lysates. PANC-1 cells were seeded in a Petri dishes. After 24 hours, […] were collected and centrifuged at 975 × g at 4 °C for 9 minutes. The supernatant was removed, and the cells were resuspended in a cold PBS buffer. The cells were centrifuged again at 900 × g at 4 °C for 5 minutes.
The supernatant was removed. Cells were suspended in Halt Protease Inhibitor Cocktail, EDTA-Free (100X) (Thermo Fisher Scientific). The samples were stored for 2 hours at -80°C. The samples were then defrosted and centrifuged at 16 000 × g at 4 °C for 20 minutes. The supernatant was stored at -80 […]
The inhibitory potency of selected peptides was examined in cell lysate alone or in presence of sunflower trypsin inhibitor (SFTI-1)6 sing furin fluorogenic substrate […] (Pepta Nova, Germany). Furin activity was determined by monitoring the AMC liberation over time with a plate reader. Measurements were performed using 96-well black plates (BRAND, Germany).
The general procedure was according to.7 In short: 20 µL of cell lysate (diluted 10 times with assay buffer pH 7.5 100 mM HEPES with 1 mM CaCl 2) was added to the well containing 60 µL of water, after 15 min in 37 °C 10 µL of peptide solution (final concentration in well 100 µM) was added. After 30 min incubation in 37 °C 10 µL substrate (100 µM final concentration) was added. […]
Next step was addition of appropriate peptide solution
(final concentration in well 100 µM) and 30 min incubation in 37 °C. After this time 10 µL substrate (100 µM final concentration) was added to the well. Percentage inhibition of the enzyme was calculated relative to the control sample without inhibitor.
Human serum from plasma (Sigma Aldrich, Germany) was prepared for the assay as referred previously.8 The experiments were carried out according to the procedure described before.2 The initial concentration of the peptide solutions was 1.54 mM. Each peptide solution was then diluted 10 times with human serum and incubated at 37 °C. Immediately after the start of incubation, 1, 2, 3, 5 and 24

[4] = inhibitor 77.0 nM (highest tested concentration)

T1 sequence (P09958 108-715 limits assumed): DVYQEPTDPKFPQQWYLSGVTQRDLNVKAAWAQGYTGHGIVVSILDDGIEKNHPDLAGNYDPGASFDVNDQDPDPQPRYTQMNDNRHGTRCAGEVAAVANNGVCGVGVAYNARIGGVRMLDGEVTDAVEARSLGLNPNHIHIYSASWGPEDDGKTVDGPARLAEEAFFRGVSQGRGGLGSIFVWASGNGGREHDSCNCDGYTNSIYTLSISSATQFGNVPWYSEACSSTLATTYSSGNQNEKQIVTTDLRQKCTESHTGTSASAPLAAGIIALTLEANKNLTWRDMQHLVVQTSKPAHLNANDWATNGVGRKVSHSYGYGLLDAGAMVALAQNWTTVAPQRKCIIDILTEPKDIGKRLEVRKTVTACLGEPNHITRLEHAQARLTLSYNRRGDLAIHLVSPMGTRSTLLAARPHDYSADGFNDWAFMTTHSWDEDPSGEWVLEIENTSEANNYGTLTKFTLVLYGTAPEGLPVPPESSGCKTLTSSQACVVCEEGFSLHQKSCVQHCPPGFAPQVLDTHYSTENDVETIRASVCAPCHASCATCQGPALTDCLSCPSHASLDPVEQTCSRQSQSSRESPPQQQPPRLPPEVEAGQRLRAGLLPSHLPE

furin activity versus control with no inhibitor added (human recombinant furin [1]; inhibitor 2.4 nM) | furin activity versus control with no inhibitor added (human recombinant furin [1]; inhibitor 24.0 nM) | furin activity versus control with no inhibitor added (human recombinant furin [1]; [4]) | times more active than the peptide with Orn at P2 (human recombinant furin [2]) | cleaved bond (PANC-1 cell lysate) | Substance | effect on furin-like activity in PANC-1 cell lysate [3]
97.18% | 46.14% | 3.72% |  |  | &^1Arg-Arg-Cys(&^2)-Lys-Lys-Ser-Ile-Pro-Pro-Ile-Cys(&^2)-Phe&^1 (KKSIPPIC; Arg-Arg-Cys, Phe; head-to-tail cyclised, disulfide; printed: Lys-Lys-Ser-Ile-Pro-Pro-Ile-Cys) [inhibitor 4] | 
62.95% | 6.02% | 0.20% | 2–3 times |  | Arg-Arg-Cys(&)-Lys-Lys-Ser-Ile-Pro-Pro-Ile-Cys(&)-Phe-NH2 [inhibitor 1] | 
66.51% | 3.98% | 0.10% |  |  | Lys-Arg-Arg-Cys(&)-Lys-Lys-Ser-Ile-Pro-Pro-Ile-Cys(&)-Phe-NH2 [inhibitor 2] | 
 |  |  |  | Arg-AMC | [pGlu]RTKR-{AMC} | 
 |  |  |  |  | sunflower trypsin inhibitor 1 [SFTI-1, reference compound] | insignificant

— PMC10107917 (ACS Medicinal Chemistry Letters, 2023)
